Experimental data published in patent US20260345488A1, “PHARMACEUTICAL FORMULATIONS” (Gelteq Limited, priority 2023, published 2026).

Assay: Compatibility of pH adjustors with the formulation
Format: physicochemical
Details: in ibuprofen gel formulation
Experimental: Hydrochloric acid and citric acid were tested as pH adjustors. […] As a consequence, it was selected as the preferred pH adjusting agent. Further details of the ibuprofen gels of the invention are set out in Example 1.
For `O=C(O)CC(O)(CC(=O)O)C(=O)O` [Citric acid], the “compatibility / effect as pH adjustor” value was “changed the pH significantly”.
For `Cl` [Hydrochloric acid], the “compatibility / effect as pH adjustor” value was “precipitated and was not compatible with the formulation”.

Assay: not given
Details: classification on solubility and permeability; cited from earlier work
For `COCCc1ccc(OCC(O)CNC(C)C)cc1` (centres unmarked) [Metoprolol], the BCS class is given as “Class I”.
In the case of `NS(=O)(=O)c1cc2c(cc1Cl)NCNS2(=O)=O` [Hydrochlorothiazide], the BCS class is given as “class II”.
In the case of `COc1ccc2cc([C@H](C)C(=O)O)ccc2c1` [Naproxen], the BCS class is given as “Class II”.
For `CN/C(=N/CCSCc1nc[nH]c1C)NC#N` [Cimetidine], the BCS class is given as “Class III”.
For `c1ccc(-c2ccc(C(c3ccccc3)n3ccnc3)cc2)cc1` (centres unmarked) [Bifonazole], the BCS class is listed as “Class IV”.
For `O=C(O)Cc1ccccc1Nc1c(Cl)cccc1Cl` [Diclofenac], the BCS class is listed as “class II”.
